Here are results for 13 molecules from US20050233413A1, “Neuroprotective polypeptides and methods of use” (priority 2002, published 2005).

Format in all cases: cell-based
For series [1], the system named is F11 cells transfected with V642I-APP cDNA. Briefly: F11 cell death by V642I-APP transfection (Trypan blue exclusion). The note with it: for cytotoxicity by V642I-APP in the presence of peptide (% dead cells of total cells): each peptide 10 μM, V642I-APP alone 53.7±1.2%, without transfection 9.0±1.4; for % dead cells of total cells: 72 hr after transfection. The text has this: (§1) In one assay, transfection with V642I-APP causes cell death in F11 neuronal hybrid cells. In the other, treatment with Aβ peptides causes cell death in primary cultured cortical neurons.
(§2) F11 cells, the hybrid of a rat embryonic-day-13 primary cultured primary neuron and a mouse neuroblastoma cell, are one of the best models for primary cultured neurons as they carry representative characteristics of primary neurons, such as generation of action potentials without differentiation by NGF [22]. They have been used in various studies of is neuronal functions. Using these cells, the underlying mechanisms for cytotoxicity by V642I-APP have well been analyzed. Cytotoxicity by V642 mutants of APP has also been confirmed in multiple different systems. F11 cells were grown in Ham's F-12 (GibcoBRL, Gaithersburg, Md.) plus 18% fetal bovine serum (FBS; Hyclone, Logan, Utah) and antibiotics, as described previously. F11 cells (7×10^4 cell/well in a 6-well plate cultured in Ham's F-12 plus 18% FBS for 12-16 hr) were transfected with plasmids encoding FAD genes by lipofection [FAD cDNA 2 μg, LipofectAMINE 4 μl, PLUS reagent 8 μl (GibcoBRL)] in the absence of serum for 3 hr, and were incubated with Ham's F-12 plus 18% FBS for 2 hr. Then, culture media were changed to Ham's F-12 plus 10% FBS with or without HN peptides, and cells were cultured for an additional 67 hr. Seventy-two hr after transfection, cell mortality was measured by Trypan blue exclusion assay, performed as follows. Cells were suspended by pipetting gently, and 50 μl of 0.4% (finally 0.08%) Trypan blue solution (Sigma, St Louis, Mo.) was mixed with 200 μl of the cell suspension at room temperature. Stained cells were counted within 3 min after the mixture with Trypan blue solution.

The subject of series [2] is Aβ and V642I-APP.
Excerpt: as §2
(§3) The primary culture of mouse cortical neurons was performed in poly-L-lysine-coated 24-well plates or 96-well plates (Sumitomo Bakelite, Akita, Japan), in the absence of serum and the presence of N2 supplement, as described previously. The purity of neurons by this method was >98%. Prepared neurons (for neurons seeded in 96-well plates: 2.5×10^4 or 5×10^4 cells/well, 100 μl culture medium/well; for neurons seeded in 24-well plates: 1.25×10^5 cells/well, 250 μl culture medium/well) were preincubated with or without 10 μM (in case for the experiment with 10 μM HN) synthetic HN for 16 hr, and treated with 25 μM Aβ in the presence or absence of 10 μM HN for 72 hr, respectively. As primary neurons were vulnerable to transient dryness during medium exchange, we treated neurons with 25 μM Aβ as follows. First, a half volume (50 μl for neurons in 96-well plates; 125 μl for neurons in 24-well plates) of old medium was discarded. Then, the same volume (50 μl for neurons in 96-well plates; 125 μl for neurons in 24-well plates) of prewarned fresh medium containing 10 μM HN and 50 μM Aβ (Aβ was directly resolved) was added to the culture. The Aβ peptides used at 25 μM to induce neurotoxicity formed aggregation in the medium during the cell culture at 37° C. for 72 hr. as described. The WST-8 cell viability assay was performed, using Cell Counting Kit-8 (Wako Pure Chemical Industries, Osaka, Japan), as described previously.
(§4) Calcein assay was performed with Calcein-AM {3′,6′-di-(O-acetyl)-2′,7′-bis [N,N-bis(carboxymethyl)aminomethyl] fluorescein, tetraacetoxymethyl ester; Dojindo}, as described previously. These assays were simultaneously performed in the experiments with neurons seeded in 96-well plates, as follows. Seventy-two hours after Aβ treatment, cells were added with the mixture of 10 μl WST-8 solution and 1 μl of 600 μM Calcein-AM. After 2 hr incubation in a CO2 incubator at 37° C., WST-8 absorbance was measured as OD450. After exchanging the medium to PBS to lower the background, Calcein-specific fluorescence (ex=485 nm, em=535 nm) was observed by fluorescence microscopy or measured by a spectrofluorometer (Wallac1420 ARVOsx Multi Label Counter). […]

Series [3] deals with primary cultured neurons treated with 25 μM Aβ1-43. The note with it: for Calcein fluorescence, percentage of neurons without treatment: 72 hours, means±S.D. Here is the method:
as §1, §3
Calcein assay was performed with Calcein-AM {3′,6′-di-(O-acetyl)-2′,7′-bis [N,N-bis(carboxymethyl)aminomethyl] fluorescein, tetraacetoxymethyl ester; Dojindo}, as described previously. These assays were simultaneously performed in the experiments with neurons seeded in 96-well plates, as follows. Seventy-two hours after Aβ treatment, cells were added with the mixture of 10 μl WST-8 solution and 1 μl of 600 μM Calcein-AM. After 2 hr incubation in a CO2 incubator at 37° C., WST-8 absorbance was measured as OD450. After exchanging the medium to PBS to lower the background, Calcein-specific fluorescence (ex=485 nm, em=535 nm) was observed by fluorescence microscopy or measured by a spectrofluorometer (Wallac1420 ARVOsx Multi Label Counter). Most cell viability data using Calcein assay and WST-8 assay were obtained from neurons seeded at 5×10^4 cells/well in 96-well plates (high-density neurons) and confirmed by both assays with the cells seeded at 2.5×10^4 cells/well (low-density neurons).
Some experiments for Calcein assay were performed with neurons seeded in 24-well plates. […] In most experiments using primary neurons, four independent experiments were performed and the means? S. D. of the results were discussed.

Series [4] concerns Aβ and four FAD genes (V642I-APP, NL-APP, M146L-PS1, and N141I-PS2). The note with it: Table 5, marked *.
Excerpt: as §2, §3, §4

Where [5] appears, read: V642I-APP + 10 pM peptide, means±S.D., V642I-APP alone 52.9 ± 1.1.
The mark [6] stands for this setting: 25 μM Aβ1-43 + 10 pM peptide, Aβ alone 8.9 ± 0.8.

pIC50: −log10 of the molar value. Where two headings read alike, the source gives them in different places. Where no end group is shown, it is not given here. [ ]: non-standard residue; d: D form. pS = N[C@@H](COP(=O)(O)O)C(=O)O

Consider `CC[C@H](C)[C@H](NC(=O)[C@H](CCC(=O)O)NC(=O)[C@H](CO)NC(=O)[C@@H](NC(=O)[C@H](CC(C)C)NC(=O)[C@H](CC(C)C)NC(=O)[C@H](CC(C)C)NC(=O)[C@H](CC(C)C)NC(=O)[C@H](CS)NC(=O)[C@H](CO)NC(=O)[C@H](Cc1ccccc1)NC(=O)CNC(=O)[C@H](CCCNC(=N)N)NC(=O)[C@@H]1CCCN1C(=O)[C@H](C)NC(=O)[C@@H](N)CCSC)[C@@H](C)O)C(=O)N[C@@H](CC(=O)O)C(=O)N[C@@H](CC(C)C)C(=O)N1CCC[C@H]1C(=O)N[C@H](C(=O)N[C@@H](CCCCN)C(=O)N[C@@H](CCCNC(=N)N)C(=O)N[C@@H](CCCNC(=N)N)C(=O)N[C@@H](C)C(=O)O)C(C)C` [HN, reference compound], for which, in series [1], the “cytotoxicity by V642I-APP in the presence of peptide (% dead cells of total cells)” value (shortened to “cytotoxicity … (% dead cells of total cells)”) is given as 11.0±0.1%.
On the same count and under the same terms, as for “(S14P)HN: HN derivative with Pro substitution at Ser14”, the figure is 12.5±1.0%.
Consider “EFLIVIKSMAPRGFSALLLLTSEIDLPVKRRA [EF-HNA]”, for which, in series [2] (Table 5, marked **), the Full protection entry is “NE** (the corresponding peptide had no cytoprotective effect at 10 μM)” and the pIC50 (in general, the IC50 on a negative log10 scale, so that one unit is a factor of ten) was less than 5.00.
Consider “EFLIVIKSMAPRGFSCLLLLTGEIDLPVKKKK [EF-HNG-KKK]”, for which the pIC50 in series [1] is approximately 10.00; in series [3], approximately 9.00. Further, in series [1] (F11 cells), the “concentration of full cytoprotection / complete suppression against V642I-APP” value was found to be 10 nM. The “concentration of full neuroprotection against Aβ1-43” value in series [3] (25 μM Aβ1-43) was 10 to 100 nM. The “suppression of Aβ neurotoxicity in the presence of 100 μM EFLIVIKS” value in series [3] (25 μM Aβ1-43, EF-HN and EF-HNG at 10 μM, WST-8 and Calcein assays) is recorded as “could not suppress Aβ neurotoxicity at all”. Moreover, the “Full protection (minimal concentration that exerted full cytoprotection)” value in series [2] (Table 5, marked **) is on record as “˜10 nM”. For the same molecule, the “potency relative to EF-HNG” value in series [2] (times less potent than EF-HNG) is reported as approximately 10 times.
In the case of “MAPRGF(D-Ser)CLLLLTSEIDLPVKRRA [D-Ser7 HN]”, the “Full protection (minimal concentration that exerted full cytoprotection)” value in series [4] was “˜10 μM”.
In the case of “MAPRGF(p-S)CLLLLT(p-S)EIDLPVKRRA (MAPRGF[pS]CLLLLT[pS]EIDLPVKRRA) [P-S7/14 HN]”, the “% dead cells of total cells” value in series [1] (setting [5]) was found to be 54.8 ± 0.5%; in series [1] (V642I-APP + 100 pM peptide) it was 54.1 ± 1.5%; in series [1] (V642I-APP + 1 nM peptide) it was 52.9 ± 1.6%; in series [1] (V642I-APP + 10 nM peptide) it was 53.8 ± 3.1%; in series [1] (V642I-APP + 100 nM peptide), 38.2 ± 1.9 %; in series [1] (V642I-APP + 1 μM peptide), 22.7 ± 5.2 %. The “% dead cells of total cells” value in series [1] (V642I-APP + 10 μM peptide) is 11.8 ± 1.2 %. Further, the “Calcein fluorescence, percentage of neurons without treatment” value is 9.3 ± 0.4% in series [3] (setting [6]); 8.8 ± 0.3% in series [3] (25 μM Aβ1-43 + 100 pM peptide); 8.8 ± 0.2% in series [3] (25 μM Aβ1-43 + 1 nM peptide); 8.7 ± 0.3% in series [3] (25 μM Aβ1-43 + 10 nM peptide); 8.6 ± 0.2% in series [3] (25 μM Aβ1-43 + 100 nM peptide); 84.0 ± 5.8 % in series [3] (25 μM Aβ1-43 + 1 μM peptide). Further, in series [3] (25 μM Aβ1-43 + 10 μM peptide), the “Calcein fluorescence, percentage of neurons without treatment” value was 103.3 ± 0.8 %. The “Full protection (minimal concentration that exerted full cytoprotection)” value in series [2] (Table 5, marked **) is listed as “˜10 μM”.
As to “MAPRGF(p-S)CLLLLTSEIDLPVKRRA (MAPRGF[pS]CLLLLTSEIDLPVKRRA) [P-S7 HN]”, the “% dead cells of total cells” value in series [1] (setting [5]) stood at 53.7 ± 0.8%; in series [1] (V642I-APP + 100 pM peptide), 53.1 ± 1.7%; in series [1] (V642I-APP + 1 nM peptide), 54.8 ± 1.6%; in series [1] (V642I-APP + 10 nM peptide), 54.1 ± 1.4%; in series [1] (V642I-APP + 10 μM peptide) it was 11.6 ± 1.1 %. Besides, the “Calcein fluorescence, percentage of neurons without treatment” value is reported as 9.0 ± 0.9% in series [3] (setting [6]); 8.7 ± 0.8% in series [3] (25 μM Aβ1-43 + 100 pM peptide); 8.8 ± 0.9% in series [3] (25 μM Aβ1-43 + 1 nM peptide); 8.8 ± 0.6% in series [3] (25 μM Aβ1-43 + 10 nM peptide); 10.5 ± 0.9% in series [3] (25 μM Aβ1-43 + 100 nM peptide); 84.2 ± 6.8 % in series [3] (25 μM Aβ1-43 + 1 μM peptide). In series [3] (25 μM Aβ1-43 + 10 μM peptide), the “Calcein fluorescence, percentage of neurons without treatment” value is 103.3 ± 2.8 %. Further, the “Full protection (minimal concentration that exerted full cytoprotection)” value in series [4] is recorded as “˜10 μM”.
Take “MAPRGFSALLLLTSEIDLPVKRRA [HNA, reference compound]”: the “cytoprotective action against V642I-APP (in words)” value in series [1] (F11 cells) is “completely inactive”. In addition, the “neuroprotective action against Aβ1-43 (in words)” value in series [3] (25 μM Aβ1-43, primary neurons) was “completely inactive”. The Full protection result in series [4] was “NE* (the corresponding peptide had no cytoprotective effect at 10 μM)”. Moreover, in series [4] (read-out: IC50), the pIC50 is less than 5.00.
In the case of MAPRGFSCLLLLTEEIDLPVKRRA [(S14E)HN], the “cytotoxicity … (% dead cells of total cells)” value in series [1] is recorded as 45.0±1.9%.
Still for that read-out and setting: under MAPRGFSCLLLLTREIDLPVKRRA [(S14R)HN] stands 52.6±1.0%.
MAPRGFSCLLLLTTEIDLPVKRRA [(S14T)HN]: the “cytotoxicity … (% dead cells of total cells)” value in series [1] amounted to 54.0±2.3%.
On the same count and under the same terms, under MAPRGFSCLLLLTWEIDLPVKRRA [(S14W)HN] stands 54.5±4.2%.
Consider “PRGFACLLLLTGEIDLP [S7A HNG17, PRGFACLLLLTGEIDLP]”, for which the pIC50 in series [3] was approximately 9.00. The “concentration of full neuroprotection against Aβ1-43” value in series [3] (25 μM Aβ1-43) is listed as “about 10 nM”. Moreover, in series [2] (Table 5, marked **), the “Full protection (minimal concentration that exerted full cytoprotection)” value is listed as “˜10 nM”.
